Measurements taken from the supplement of paper PMC11451515.

Experiments:
Details in all cases: 48 h
[1] = test system: NOMO1; experiment: cell viability relative to DMSO control; higher = less cytotoxic
Method in brief: (§1)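 Before seeding, each leukemia line was adapted for at least four passages in each medium. NOMO1 or SEM cells (500 cells/well) and P12-Ichikawa cells (1000 cells/well) went into 1536-well plates at 5 μl, then received library compounds in DMSO by pin dosing across 11 threefold concentrations, 47 μM to 0.79 nM. Readout was CellTiter-Glo One luminescence after 48 h at 37°C, and viability is given as a per-plate percentage of DMSO wells, with cell-free wells as background.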

[2] = test system: P12-Ichikawa; experiment: as above
Method in brief: as §1

[3] = test system: SEM cells; experiment: as above
Method in brief: as §1

[4] = test system: NOMO1; experiment: AUC of viability dose-response curve (% viability x log10 dose units); higher = less sensitive
Method in brief: (§2)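 Leukemia cells adapted to each medium were seeded in 1536-well plates (500 or 1000 cells/well). They were dosed with library compounds in DMSO at 11 threefold doses, 47 μM to 0.79 nM, for 48 h at 37°C. CellTiter-Glo One luminescence was normalised per plate to DMSO and cell-free wells. Area under the curve was integrated by trapezoidal rule over log10 doses on a four-parameter log-logistic fit; curves exceeding full viability were scaled and curves failing quality control removed.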

[5] = test system: P12-Ichikawa; experiment: as above
Method in brief: as §2

[6] = test system: SEM cells; experiment: as above
Method in brief: as §2

O=[N+]([O-])c1cnc(Sc2nnc(O)n2-c2ccc3c(c2)OCCO3)s1
cell viability [%]
Details | [1] | [2] | [3]
HPLM + 10% dialyzed FBS, 0.000781 µM | 84.4 | 87.4 | 90.4
HPLM + 10% dialyzed FBS, 0.00234 µM | 73.6 | 86.1 | 69.9
HPLM + 10% dialyzed FBS, 0.00702 µM | 101 | 87.7 | 80.1
HPLM + 10% dialyzed FBS, 0.0211 µM | 102 | 91 | 82.6
HPLM + 10% dialyzed FBS, 0.0632 µM | 96.4 | 91.8 | 73.2
HPLM + 10% dialyzed FBS, 0.19 µM | 92.3 | 93.4 | 86.9
HPLM + 10% dialyzed FBS, 0.569 µM | 86.3 | 94.2 | 102
HPLM + 10% dialyzed FBS, 1.71 µM | 96.1 | 97 | 84.3
HPLM + 10% dialyzed FBS, 5.12 µM | 93.6 | 87.8 | 83.2
HPLM + 10% dialyzed FBS, 15.4 µM | 6.33 | 45.8 | 2.06
HPLM + 10% dialyzed FBS, 46.1 µM | 2.43 | 2.64 | 2.49
RPMI 5 mM glucose + 10% FBS, 0.000781 µM | 81.7 | 86.5 | 87.5
RPMI 5 mM glucose + 10% FBS, 0.00234 µM | 78.2 | 84.3 | 70.9
RPMI 5 mM glucose + 10% FBS, 0.00702 µM | 95.3 | 88 | 87.6
RPMI 5 mM glucose + 10% FBS, 0.0211 µM | 92 | 94.1 | 87.8
RPMI 5 mM glucose + 10% FBS, 0.0632 µM | 85.2 | 87.6 | 89
RPMI 5 mM glucose + 10% FBS, 0.19 µM | 86.2 | 92.5 | 88.6
RPMI 5 mM glucose + 10% FBS, 0.569 µM | 82.8 | 81.5 | 100
RPMI 5 mM glucose + 10% FBS, 1.71 µM | 92.2 | 90 | 73.1
RPMI 5 mM glucose + 10% FBS, 5.12 µM | 84.7 | 81.6 | 71.4
RPMI 5 mM glucose + 10% FBS, 15.4 µM | 2.77 | 3.89 | 2.18
RPMI 5 mM glucose + 10% FBS, 46.1 µM | 2.27 | 1.48 | 2.5
RPMI 5 mM glucose + 10% dialyzed FBS, 0.000781 µM | 78.9 | 83.6 | 82.7
RPMI 5 mM glucose + 10% dialyzed FBS, 0.00234 µM | 96.3 | 78.6 | 67.9
RPMI 5 mM glucose + 10% dialyzed FBS, 0.00702 µM | 92 | 80.5 | 81.6
RPMI 5 mM glucose + 10% dialyzed FBS, 0.0211 µM | 97.1 | 84.1 | 84.1
RPMI 5 mM glucose + 10% dialyzed FBS, 0.0632 µM | 92.2 | 87.4 | 77.4
RPMI 5 mM glucose + 10% dialyzed FBS, 0.19 µM | 98.9 | 89.2 | 88.2
RPMI 5 mM glucose + 10% dialyzed FBS, 0.569 µM | 95.3 | 83.6 | 85.1
RPMI 5 mM glucose + 10% dialyzed FBS, 1.71 µM | 89.9 | 79.2 | 86.7
RPMI 5 mM glucose + 10% dialyzed FBS, 5.12 µM | 83.5 | 79.3 | 77.9
RPMI 5 mM glucose + 10% dialyzed FBS, 15.4 µM | 6.45 | 1.24 | 2.08
RPMI 5 mM glucose + 10% dialyzed FBS, 46.1 µM | 1.89 | 0.948 | 2.84

AUC of viability dose-response curve
Details | [4] | [5] | [6]
HPLM + 10% dialyzed FBS | 376 | 390 | 341
RPMI 5 mM glucose + 10% FBS | 353 | 356 | 342
RPMI 5 mM glucose + 10% dialyzed FBS | 375 | 337 | 331
